From ChEMBL document CHEMBL3351875, “Synthesis of Deuterated Benzopyran Derivatives as Selective COX-2 Inhibitors with Improved Pharmacokinetic Properties” (ACS Med Chem Lett, 2014) come the findings set out here.

pIC50: −log10 of the molar value.

For series [1], the system named is Rattus norvegicus. As to the kind of experiment: (§1) AUC (0 to infinity) in Sprague-Dawley rat at 10 mg/kg, po measured during 1 to 24 hrs by LC-MS method. It counts as ADME, organism-based, Plasma. The note with it: in vivo. Also on record: time infinity, dose 10 mg/kg, route oral.
Series [2] in a line: Cmax in Sprague-Dawley rat at 10 mg/kg, po measured during 1 to 24 hrs by LC-MS method. Format: ADME, organism-based. Also on record: dose 10 mg/kg, route oral. The note with it: in vivo.
Series [3] relates to Rattus norvegicus. As to the kind of experiment: Tmax in Sprague-Dawley rat at 10 mg/kg, po measured during 1 to 24 hrs by LC-MS method. It counts as ADME, organism-based. The arrangement: dose 10 mg/kg, route oral. The note with it: in vivo.
Series [4] deals with Rattus norvegicus. The experiment in a line: Half life in Sprague-Dawley rat at 10 mg/kg, po measured during 1 to 24 hrs by LC-MS method. The arrangement: dose 10 mg/kg, route oral. The note with it: in vivo. Format: ADME, organism-based.
The test system of series [5] is Rattus norvegicus. The experiment in a line: Half life in Sprague-Dawley rat at 1 mg/kg, iv measured during 1 to 24 hrs by LC-MS method. It counts as ADME, organism-based. Also on record: dose 1 mg/kg, route intravenous. The note with it: in vivo.
The subject of series [6] is Rattus norvegicus. The experiment in a line: Antiinflammatory activity in orally dosed Sprague-Dawley rat model of carrageenan-induced air pouch inflammation assessed as reduction in PGE2 level by ELISA method. Format: functional, organism-based. Background: ELISA stands for enzyme-linked immunosorbent assay.
The test system of series [7] is Rattus norvegicus. The experiment in a line: Volume of distribution in Sprague-Dawley rat at 10 mg/kg, po measured during 1 to 24 hrs by LC-MS method. It counts as ADME, organism-based. Also on record: dose 10 mg/kg, route oral. The note with it: in vivo.
Series [8] has as its system Rattus norvegicus. The experiment in a line: (§2) Oral bioavailability in Sprague-Dawley rat at 10 mg/kg measured during 1 to 24 hrs by LC-MS method. Format: ADME, organism-based. The note with it: in vivo.
The subject of series [9] is Rattus norvegicus. The experiment in a line: AUC (0 to infinity) in Sprague-Dawley rat at 1 mg/kg, iv measured during 1 to 24 hrs by LC-MS method. Format: ADME, organism-based, Plasma. The arrangement: time infinity, dose 1 mg/kg, route intravenous. The note with it: in vivo.
Series [10] can be described thus: Volume of distribution in Sprague-Dawley rat at 1 mg/kg, iv measured during 1 to 24 hrs by LC-MS method. Format: ADME, organism-based. The arrangement: dose 1 mg/kg, route intravenous. The note with it: in vivo.
The nature of series [11]: Apparent oral clearance in Sprague-Dawley rat at 1 mg/kg, iv measured during 1 to 24 hrs by LC-MS method. The note with it: in vivo. Format: ADME, organism-based. Also on record: dose 1 mg/kg, route oral.
Series [12] concerns Rattus norvegicus. The experiment in a line: (§3) Apparent oral clearance in Sprague-Dawley rat at 10 mg/kg, po measured during 1 to 24 hrs by LC-MS method. It counts as ADME, organism-based. The arrangement: dose 10 mg/kg, route oral. The note with it: in vivo.
Series [13] can be described thus: Cmax in Sprague-Dawley rat at 1 mg/kg, iv measured during 1 to 24 hrs by LC-MS method. Format: ADME, organism-based. The arrangement: dose 1 mg/kg, route intravenous. The note with it: in vivo.
Series [14] deals with Prostaglandin G/H synthase 1 (Homo sapiens, UniProt P23219). The experiment in a line: Inhibition of human recombinant COX1 pre-incubated for 15 mins before fluorometric substrate addition by fluorescence based assay.
Sequence of Prostaglandin G/H synthase 1 (P23219 whole entry): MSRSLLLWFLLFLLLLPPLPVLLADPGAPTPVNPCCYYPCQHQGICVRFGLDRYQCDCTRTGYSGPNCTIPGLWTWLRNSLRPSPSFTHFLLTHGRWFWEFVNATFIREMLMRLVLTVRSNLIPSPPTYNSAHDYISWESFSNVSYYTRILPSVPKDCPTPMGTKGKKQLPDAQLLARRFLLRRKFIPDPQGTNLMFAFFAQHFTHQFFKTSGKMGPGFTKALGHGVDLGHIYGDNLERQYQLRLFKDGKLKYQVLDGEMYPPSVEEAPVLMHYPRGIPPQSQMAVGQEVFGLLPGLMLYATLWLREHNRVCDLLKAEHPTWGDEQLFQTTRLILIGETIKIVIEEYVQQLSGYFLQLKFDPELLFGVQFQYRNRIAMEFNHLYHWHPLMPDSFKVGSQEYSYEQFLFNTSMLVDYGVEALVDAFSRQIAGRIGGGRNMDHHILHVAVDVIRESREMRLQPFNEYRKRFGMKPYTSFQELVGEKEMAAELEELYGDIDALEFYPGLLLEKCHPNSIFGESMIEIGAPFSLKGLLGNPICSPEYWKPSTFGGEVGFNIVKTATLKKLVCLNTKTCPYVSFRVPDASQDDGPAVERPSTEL
Series [15] is described as follows: AUC (0 to infinity) in Sprague-Dawley rat at 5 mg/kg, iv measured during 1 to 24 hrs by LC-MS method. Format: ADME, organism-based, Plasma. The arrangement: time infinity, dose 5 mg/kg, route intravenous. The note with it: Sprague-Dawley, plasma.
Series [16] is described as follows: as §1. Format: ADME, organism-based, Plasma. The arrangement: time infinity, dose 10 mg/kg, route oral. The note with it: Sprague-Dawley, plasma.
Series [17] in a line: Volume of distribution in Sprague-Dawley rat at 5 mg/kg, iv measured during 1 to 24 hrs by LC-MS method. Format: ADME, organism-based. The arrangement: dose 5 mg/kg, route intravenous. The note with it: in vivo.
Series [18] can be described thus: Apparent oral clearance in Sprague-Dawley rat at 5 mg/kg, iv measured during 1 to 24 hrs by LC-MS method. The note with it: in vivo. Format: ADME, organism-based. The arrangement: dose 5 mg/kg, route oral.
Series [19] deals with Rattus norvegicus. The experiment in a line: Half life in Sprague-Dawley rat at 5 mg/kg, iv measured during 1 to 24 hrs by LC-MS method. Format: ADME, organism-based. Also on record: dose 5 mg/kg, route intravenous. The note with it: in vivo.
The nature of series [20]: as §2. The note with it: Sprague-Dawley, in vivo. It counts as ADME, organism-based.
The nature of series [21]: Cmax in Sprague-Dawley rat at 5 mg/kg, iv measured during 1 to 24 hrs by LC-MS method. The arrangement: dose 5 mg/kg, route intravenous. The note with it: in vivo. Format: ADME, organism-based.
A short description of series [22]: as §3. Also on record: dose 10 mg/kg, route oral. The note with it: Sprague-Dawley, in vivo. Format: ADME, organism-based.
Series [23] has as its system Rattus norvegicus. The experiment in a line: Antiinflammatory activity in orally dosed Sprague-Dawley rat model of carrageenan-induced foot paw edema assessed as reduction in edema by plethysmometry. Format: functional, organism-based. A general note: In the carrageenan paw model, swelling and tenderness develop within hours.
Series [24] has as its target T1, Prostaglandin G/H synthase 2 (Homo sapiens, UniProt P35354).
T1 sequence (P35354 whole entry): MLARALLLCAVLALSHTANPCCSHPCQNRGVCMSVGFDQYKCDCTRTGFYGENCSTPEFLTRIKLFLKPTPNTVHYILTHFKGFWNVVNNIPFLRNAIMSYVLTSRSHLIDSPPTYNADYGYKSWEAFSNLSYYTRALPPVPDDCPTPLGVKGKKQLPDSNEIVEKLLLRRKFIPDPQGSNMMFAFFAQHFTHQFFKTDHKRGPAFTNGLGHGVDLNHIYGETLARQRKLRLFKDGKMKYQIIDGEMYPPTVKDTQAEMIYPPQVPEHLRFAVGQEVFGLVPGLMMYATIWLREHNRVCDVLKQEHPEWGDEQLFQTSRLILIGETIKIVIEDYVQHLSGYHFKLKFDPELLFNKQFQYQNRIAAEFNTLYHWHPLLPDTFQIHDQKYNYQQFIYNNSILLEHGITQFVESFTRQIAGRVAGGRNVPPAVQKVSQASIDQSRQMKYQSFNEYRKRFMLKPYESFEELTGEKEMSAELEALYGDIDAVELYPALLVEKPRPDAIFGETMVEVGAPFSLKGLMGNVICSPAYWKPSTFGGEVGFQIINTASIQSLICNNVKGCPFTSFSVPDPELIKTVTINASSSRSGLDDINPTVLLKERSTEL
As to the kind of experiment: Inhibition of human recombinant COX2 pre-incubated for 15 mins before fluorometric substrate addition by fluorescence based assay.

For series [25], the system named is Rattus norvegicus. As to the kind of experiment: Antinociceptive activity in orally dosed Sprague-Dawley rat model of carrageenan-induced foot paw hyperalgesia assessed as paw withdrawal latency. It counts as functional, organism-based.
Series [26] relates to Rattus norvegicus. The experiment in a line: Oral bioavailability in Sprague-Dawley rat at 2.5 mg/kg measured during 1 to 24 hrs by LC-MS method. The note with it: in vivo. Format: ADME, organism-based.
Series [27] relates to Rattus norvegicus. As to the kind of experiment: AUC (0 to infinity) in Sprague-Dawley rat at 2.5 mg/kg, po measured during 1 to 24 hrs by LC-MS method. Format: ADME, organism-based, Plasma. Also on record: dose 2.5 mg/kg, route oral, time infinity. The note with it: in vivo.
Series [28] has as its system Rattus norvegicus. The experiment in a line: Apparent oral clearance in Sprague-Dawley rat at 2.5 mg/kg, po measured during 1 to 24 hrs by LC-MS method. Format: ADME, organism-based. The arrangement: dose 2.5 mg/kg, route oral. The note with it: in vivo.

On to `Cc1cc2c(c(C)c1Cl)C=C(C(=O)O)C(C(F)(F)F)O2` (stereo not given), for which the values for the AUC in the series with Rattus norvegicus [1] and with Rattus norvegicus [9] were 12846.927 ng·h/mL and 4898.988 ng·h/mL, respectively. Also, the Cmax – broadly, the highest concentration seen after dosing – in [2] is 6590 ng/mL; in [13], 5040 ng/mL. Moreover, in the series on Rattus norvegicus [3], the Tmax (commonly the time from dosing to the highest level) worked out at 0.438 h. In addition, the t1/2 with Rattus norvegicus [4] worked out at 3.09 h; in the series with Rattus norvegicus [5] it was 1.5 h. Further, the EC50 in the series with Rattus norvegicus [6] is 0.77 mg/kg. In addition, the Vd in the series with Rattus norvegicus [7] amounted to 1.25 L/kg; in [10] it was 0.45 L/kg. For the same compound, the F in the series with Rattus norvegicus [8] was 78.5%. For the same compound, the CL/F – broadly, clearance divided by bioavailability, as obtained after extravascular dosing – is 3.45 mL/min/kg in series [11] and 3.25 mL/min/kg in the series on Rattus norvegicus [12]. Further, the pIC50 (in general, the IC50 on a negative log10 scale, so that one unit is a factor of ten) in series [14] is less than 4.00.

For `CC(C)(C)c1cc2c(cc1Cl)C=C(C(=O)O)[C@@H](C(F)(F)F)O2` [TIGEMOCOXIB], the AUC(0-inf) (in general, the area under the concentration-time curve extrapolated to infinity) in series [15] is 31300 ng·h/mL; in [16], 42200 ng·h/mL. The Cmax in [2] amounted to 8150 ng/mL; in [21] it was 37200 ng/mL. Besides, the Vd in series [17] worked out at 1.35 L/kg; in the series on Rattus norvegicus [7] it was 2.314 L/kg. The time to peak (Tmax) in the series with Rattus norvegicus [3] was determined as 0.75 h. For the same compound, the results for the CL/F in series [18] and in [22] were 2.67 mL/min/kg and 4.03 mL/min/kg, respectively. The t1/2 stood at 6.68 h with Rattus norvegicus [4] and 5.78 h in the series on Rattus norvegicus [19]. Moreover, the bioavailability in series [20] was found to be 67.5%.

Consider `[2H]C([2H])([2H])c1cc(Cl)cc2c1O[C@H](C(F)(F)F)C(C(=O)O)=C2`, for which the pIC50 in series [14] was less than 4.00.

For the compound `[2H]C([2H])([2H])c1cc2c(c(C([2H])([2H])[2H])c1Br)C=C(C(=O)O)C(C(F)(F)F)O2` (stereo not given), the figures for the EC50 with Rattus norvegicus [23], in the series with Rattus norvegicus [6] and with Rattus norvegicus [25] were 2.26 mg/kg, 0.57 mg/kg and 3.82 mg/kg, respectively. The area under the curve AUC(0-inf) was 37900 ng·h/mL in series [15] and 84800 ng·h/mL in [16]. Also, the pIC50 in series [24] was 7.37. Further, the Vd amounted to 0.529 L/kg in series [17] and 0.57 L/kg in the series with Rattus norvegicus [7]. Besides, the figures for the CL/F in [18] and in series [22] were 2.25 mL/min/kg and 2.08 mL/min/kg, respectively. The compound also showed a t1/2 with Rattus norvegicus [19] of 2.733 h. Besides, the bioavailability in series [20] is 112%. For the same compound, the peak concentration (Cmax) in [21] was determined as 26200 ng/mL.

With `[2H]C([2H])([2H])c1c(Br)c2c(c(C([2H])([2H])[2H])c1Br)C=C(C(=O)O)C(C(F)(F)F)O2` (stereo not given), in series [14], the pIC50 was less than 4.00.

Turning to `Cc1c(Br)c(C)c2c(c1Br)OC(C(F)(F)F)C(C(=O)O)=C2` (stereo not given), the figures for the negative logarithm of the IC50 (pIC50) in series [24] and in [14] were 7.16 and less than 4.00, respectively.

Consider `[2H]C([2H])([2H])c1cc2c(c(C([2H])([2H])[2H])c1)OC(C(F)(F)F)C(C(=O)O)=C2` (stereo not given), for which, in [14], the negative logarithm of the IC50 (pIC50) is less than 4.00.

Regarding `[2H]C([2H])([2H])c1cc(Cl)cc2c1OC(C(F)(F)F)C(C(=O)O)=C2` (stereo not given), the EC50 with Rattus norvegicus [23] came out at 6.48 mg/kg; in the series with Rattus norvegicus [6], 0.45 mg/kg; in the series on Rattus norvegicus [25], 3.33 mg/kg. The F with Rattus norvegicus [26] was 110.7%. Also, the results for the AUC in the series on Rattus norvegicus [27] and in the series on Rattus norvegicus [9] were 38900 µg/L.hr and 14043.753 ng·h/mL, respectively. This compound had a t1/2 in the series with Rattus norvegicus [5] of 3.909 h. Besides, in series [10], the Vd is 0.404 L/kg. The CL/F in series [11] is 1.2 mL/min/kg; in the series with Rattus norvegicus [28] it was 1.1 mL/min/kg. Also, in series [13], the Cmax was found to be 9070 ng/mL.
